Literature values as cited in patent publication US20110014255A1, “PHYTOSANITARY FORMULATION GENERATING NANOPARTICLES, METHOD FOR PREPARING NANOPARTICLES AND USE THEREOF” (priority 2006, published 2011).
Values joined by “and” are separate entries in the source; they are usually repeats but may differ in a detail not shown here. Equal values may be shown once. Where a name gives a salt, the structure may show the parent alone.

details: % by weight

Row | miscibility in water | Compound
1 | 0.35% | CCCCCC(C)O (centres unmarked) [Example 2-heptanol, 2-heptanol]
2 | 2.4% | COCOC [dimethoxymethane]
3 | 0.1% | CCCCCCCCN1CCCC1=O [N-octylpyrrolidone]
4 | 0.02% | CCCCCCCCCCO [decanol]
5 | 1% | CCCCCOC(C)=O [N-pentyl acetate]
6 | 4.5% | CCCCOC(=O)[C@H](C)O [(S)-n-butyl lactate]
7 | 0.07% | CCCCC(CC)CO (centres unmarked) [2-ethylhexanol]
8 | 0.55% | CC(=O)c1ccccc1 [acetophenone]
9 | 0.43% | CCCCCCCC(=O)N(C)C [N,N-dimethyloctanamide]
10 | 0.6% | CCCC(O)C(CC)CO (centres unmarked) [2-ethyl-1,3-hexanediol]
11 | 6.5% | CCCCOCCOCCO [diethylene glycol n-butyl ether]
12 | 0.005% | O=C(OCc1ccccc1)c1ccccc1O [benzyl salicylate]
13 | 2.9% | CC(=O)OC(C)C [isopropyl acetate]
14 | 0.67% | CC(=O)OCC(C)C [isobutyl acetate]
15 | 2% | CC(=O)OCCC(C)C [isoamyl acetate]
16 | 0.63% | CCC(CC)CO [2-ethylbutanol]
17 | 0.001% | CC(=O)OCc1ccccc1 [benzyl acetate]
18 | 0.61% | c1ccc2ncccc2c1 [quinoline]
19 | 5% | COC(=O)C(=O)OC [dimethyl oxalate]
20 | 8% | CCOC(C)=O [ethyl acetate]
21 | 7.1% | CCCC=O [butyraldehyde]
22 | 2.5% | COC(=O)CCCCC(=O)OC [dimethyl adipate]
23 | 0.074% and 0.07% | COC(=O)c1ccccc1O [methyl salicylate]
24 | 0.5% | CC(C)COC(=O)C(C)C [isobutyl isobutyrate]
25 | 2.3% | CCCOC(C)=O [propyl acetate]
26 | 0.002% | c1ccc(Oc2ccccc2)cc1 [diphenyl ether]
27 | 1.04% | COc1ccccc1 [anisole]
28 | 0.08% | OCc1ccccc1 [benzyl alcohol]

Row | Compound | miscibility in water
29 | N#Cc1ccccc1 [benzonitrile] | 0.2%
30 | C=CC#N [acrylonitrile] | 7.35%
31 | CC(Cl)Cl [1,1-dichloroethane] | 5.03%
32 | CC1=CC(=O)CC(C)(C)C1 [isophorone] | 1.2%
33 | CCCC#N [butyronitrile] | 3.3%
34 | ClCCl [dichloro-methane] | 1.3%
35 | O=Cc1ccco1 [furfuraldehyde] | 8.3%
36 | CCCCC(CC)COP(=O)(OCC(CC)CCCC)OCC(CC)CCCC (centres unmarked) [tris(2-ethylhexyl)phosphate] | 0.1%
37 | ClCC1CO1 (centres unmarked) [epichlorohydrin] | 6.58%
38 | CCCCOC(C)=O [butyl acetate] | 2.9%
39 | O=C1CCCCC1 [cyclohexanone] | 2.4% and 2.3%
40 | CC(=O)CC(C)C [methyl isobutyl ketone] | 1.7%
41 | COC(=O)c1ccccc1C(=O)OC [dimethyl phthalate] | 1.84%
42 | CCCCOCCOP(=O)(OCCOCCCC)OCCOCCCC [tributoxyethyl phosphate] | 0.11%
43 | CCOC(=O)c1ccccc1C(=O)OCC [diethyl phthalate] | 0.1%

same assay, conditions: % by weight; listed as octyl pyrrolidone

Row | miscibility in water | Compound
44 | not more than 0.1% | CCCCCCCCN1CCCC1=O [N-octylpyrrolidone]
